# Experimental data reported in US11306122B2, “Compositions and methods of inhibiting the binding of plasma IgG autoantibodies to serotonin 2A receptor” (United States Government As Represented By The Department …, priority 2019, dated 2022).
# Numbered stars: 1 amine (or outer) side, 2 acyl side, 3 side chain; on linkers, the order of the positions; unused ones are H or OH. Bridge positions count the residues as written; N and C are the ends. Square brackets hold non-standard residues; d marks the D form. Peptide text beside a SMILES is read from it. X1 = CC(=O)NC(C(=O)OC(C(C)C)C(N[*:1])C(=O)[*:2])C(O)C(C)C; PhLac = O=C(O)[CH](O)Cc1ccccc1; NMeT = CN[CH](C(=O)O)[CH](C)O; NMeA = CN[CH](C)C(=O)O; NMeDha = C=C(NC)C(=O)O
# What was measured:
# [1] = test system: mouse N2A neuroblastoma cells; assay: Acute N2A neurite retraction induced by diabetic pathologies' IgG autoantibodies; type: cell-based; conditions: for Mean acute N2a neurite retraction (%): Pt 1 IgG one-fortieth dilution + 20 μg/mL peptide, IgG alone 100 + 0%; for effect on Patient 1 IgG autoantibody-induced N2A neurite retraction: short peptides at 20 μg/mL, pre-incubated 5 minutes, Q..N-18 dose series
# Protocol: Methods: Plasma or serum from fifty-six older adults with (n=49) or without (n=7) type 2 diabetes was subjected to Protein-A affinity chromatography to obtain IgG autoantibodies. Binding to a synthetic 18-meric linear synthetic peptide (SEQ ID NO: 1) corresponding to the second extracellular loop of the 5-hydroxytryptamine 2A receptor was tested in a 1/40th or higher dilution of the protein-A eluates. Mean acute neurite retraction (5 minutes) or cell survival (16-24 hours) was determined in mouse N2A neuroblastoma cells incubated with IgG autoantibodies in the presence or absence of three short, linear overlapping peptides comprising the second extracellular loop of the human 5-hydroxytryptamine 2A receptor (SEQ ID NOs: 2, 3 and 4).
# N2A Acute Neurite Retraction assay. Acute neurite retraction assay was performed as described in Hu G, et al. Diabetes Care 2007; 30(4): 842-847.
# Epitope mapping of region within 5-HT2A receptor, linear synthetic 5-HT2A receptor peptide targeted by autoantibodies. Next an epitope analysis was performed to determine the subregion within the 5-HT2A receptor second extracellular domain that binds to the type 2 diabetes pathologies' autoantibodies. Three overlapping short peptides were synthesized (SEQ ID NOs: 2, 3, and 4). N2a cells expressing neurites were pre-incubated with each of the peptides separately (for 5 minutes) prior to the addition of Patient 1, […] hypertension IgG autoantibodies to determine which of the three peptides could compete for binding to the test diabetic pathologies' autoantibodies causing inhibition of IgG autoantibody-induced neurite retraction.
# The indicated concentration of the Q . . . […] Acute N2A neurite retraction was assessed after 5 minutes.
# [2] = test system: N2A cells; assay: Neurite retraction in N2A cells induced by 5-HT2AR agonists (DOI, serotonin); type: cell-based, mouse
# Description: The mGlu2/3R agonist LY379268 was previously reported to cause positive allosteric modulation of the 5HT2AR protomer affinity at 5HT2AR/mGlu2R heteromers (González-Maeso J, et al., Nature. 2008; 452(7183):93-97).
# [3] = test system: N2A mouse neuroblastoma cells; assay: Acute N2A neurite retraction induced by schizophrenia plasma autoantibodies; type: cell-based; conditions: for % AutoAB-induced neurite retraction: 20 nM Pt 1 schizophrenia AutoAB; for effect on schizophrenia autoantibody-induced neurite retraction: M100907 two-hundred nanomolar, Y27632 ten micromolar, Y254890 one micromolar; for % of AutoAB-induced neurite retraction: 40 nM SCZ IgG (N = 2), alone 100 ± 0%
# Protocol: (§1) Methods: Plasma from five older adults with chronic schizophrenia and eight age-matched patients having another neuropsychiatric, immune or metabolic disorder was subjected to Protein-A affinity chromatography to obtain IgG autoantibodies. Mean neurite retraction (5 minutes) or cell survival (24 hours) was determined in mouse N2A neuroblastoma cells incubated with autoantibodies in the presence or absence of specific antagonists of the Gq/11/PLC/IP3R signaling pathway, Gi-coupled, beta-arrestin2-directed pathways, or LY379268.
# Acute neurite retraction assay. Percent of basal neurite length in N2A cells expressing one or more proximally-located dendrite-like process was determined after interval exposure to test substances (Zimering M B, J Endocrinol Diabetes. 2018; 5(2): 10).
# A twenty nanomolar concentration of protein-A eluate fraction of plasma from Pt 1 with schizophrenia was incubated with N2A cells in the presence or absence of the indicated concentration of each Gq/11, GPCR antagonist. Results are the mean+/−SD of two experiments.
# A forty nanomolar concentration of plasma autoantibodies (AutoAB) from Pt 1 or Pt, schizophrenia, was incubated in the presence or absence of the indicated concentration of RhoA/Rho kinase (ROCK) inhibitor, or individual antagonists of the Gq11/PLC/IP3R signaling pathway. […]
# [4] = test system: mouse N2A neuroblastoma cells; assay: Acute N2A neurite retraction induced by TBI patient 5-HT2A receptor autoantibodies; type: cell-based; conditions: for effect on TBI autoantibody-induced acute neurite retraction: M100907 250-500 nM, Y27632 10 μM, other concentrations as in Table 17; for % of autoantibody Neurite Retraction from TBI patients: 60 nM IgG of representative TBI patient; for effect on neurite retraction in TBI patient autoantibodies, Example 4: 10 μM Y27632, 1 μM YM25489, 1 μM U73122, 50 μM 2-APB; for % of 5-HT2A receptor Autoantibody Neurite Retraction: 60 nM TBI autoantibodies (alone 100%)
# Protocol: Acute neurite retraction. Mouse N2A neuroblastoma cells were maintained in Dulbecco's minimal essential medium with 10% fetal calf serum. […] Neurite retraction represents average neurite length-shortening after five minutes exposure to TBI (5-HT2A receptor) autoantibodies (60-100 nM) in the presence or absence of various G-protein coupled receptor (GPCR) or signaling pathway antagonists.
# A 60 nanomolar concentration of the IgG autoantibodies (e.g., 5-HT2A receptor autoantibodies) from a representative TBI patient was incubated with N2A cells in the presence or absence of the indicated concentration of the selective GPCR antagonist.
# A 60 nanomolar concentration of 5-HT2A receptor autoantibodies from TBI patients was incubated with N2A cells in the presence or absence of the indicated concentration of Gq11/PLC-gamma/IP3R antagonist or RhoA/Rho kinase pathway inhibitor.
# Neurovascular 5-hydroxytryptamine (serotonin) 2A receptor (5-HT2AR) autoantibodies were previously reported to function as long-acting agonists in diabetic angiopathy and subsets of major depression, Parkinson's disease or dementia. The 5-HT2A receptor is highly expressed in specific brain regions underlying cognition, perception and mood regulation. Long-lasting 5-HT2A receptor activation by circulating autoantibodies might contribute to pathophysiology via central and peripheral mechanisms. Since the risk or incidence of Parkinson's disease, depression and dementia increase following traumatic brain injury (TBI), circulating neurotoxic autoantibodies (e.g., 5HT2AR) were tested, characterized and compared with autoantibodies from TBI patients vs. diabetic subsets with or without neurodegenerative disorders. Plasma IgG autoantibodies (e.g., 5-HT2AR autoantibodies) were obtained by protein-A affinity chromatography in ten male TBI patients mean age 64 years old.
# [5] = test system: N2A cells; assay: N2A cell loss (MTT) induced by TBI patient autoantibodies; type: cell-based, mouse; conditions: M100907 250 nM (eight of eight patients); prazosin 850 nM (n=5); one-fiftieth dilution; 24 hours
# Protocol: Cell survival was determined with MTT assay.
# Mouse neuroblastoma cell loss. N2A cell loss was quantified using an MTT (3-(4,5-dimethylthiazol-2-yl)-2,5-diphenyltetrazolium bromide) tetrazolium reduction assay after overnight incubation with autoantibodies from TBI patients (Zimering M B, Endocrinol Diabetes Metab J. 2019 August; 3(4) pii: 118. Epub 2019 Aug. 14).
# [6] = test system: N2A mouse neuroblastoma cells; assay: N2A cell survival (MTT) promoted by schizophrenia/psychosis plasma autoantibodies; type: cell-based; conditions: LY379268 5 μM, pertussis toxin 100 ng/mL; for effect alone on N2A cell survival: without autoantibodies; for effect on autoantibody-induced N2A pro-survival/proliferation (words): M100907 500 nM, LY294002 20 μM, 24 hours
# Protocol: as §1
# N2A cell survival. MTT assay was performed 24 hours after incubation with test substances (Zimering M B, J Endocrinol Diabetes. 2018; 5(2): 10).
# Serotonin 2A receptor activation leads to f3-arrestin-2-mediated desensitization and receptor internalization. However, β-arrestin-2 can also couple with diverse signaling pathways leading to enhanced cell proliferation and/or survival promotion.
# [7] = Patient 1 DM refractory hypertension autoantibody, one sixtieth dilution, 5 minutes, 0 μg/mL peptide: 90 + 5%
compound,measurement,setting,value
"VFKEGSC [Peptide 4, short overlapping peptide of 5-HT2A receptor second extracellular loop]",Mean acute N2a neurite retraction (%),[1]; 5 minutes,88 + 13%
same,effect on Patient 1 IgG autoantibody-induced N2A neurite retraction,[1],no significant effect
"COc1cc(CC(C)N)c(OC)cc1I (centres unmarked) [DOI, 1-[2,5-dimethoxy-4-iodophenyl]-2-aminopropane]",concentration of DOI needed to evoke 25-30% neurite inhibition,[2]; in the absence of LY379268,10 µM
same,concentration of DOI needed to evoke 25-30% neurite inhibition,[2]; in the presence of (10 μM) LY379268,5 µM
same,peak neurite retraction,"[2]; saturating concentration, 20 μM",40%
CCCCc1nc(Cl)c(CO)n1Cc1ccc(-c2ccccc2-c2nn[nH]n2)cc1 [Losartan],% AutoAB-induced neurite retraction,[3]; antagonist 10 μM,72 ± 8%
COc1ccccc1Oc1c(NS(=O)(=O)c2ccc(C(C)(C)C)cc2)nc(-c2ncccn2)nc1OCCO [Bosentan],effect on TBI autoantibody-induced acute neurite retraction,[4],little or no significant protective effect
same,% of autoantibody Neurite Retraction from TBI patients,[4]; antagonist 10 μM,80%
same,% AutoAB-induced neurite retraction,[3]; antagonist 10 μM,94 ± 7%
O=C(c1ccc(F)cc1)C1CCN(CCn2c(=O)[nH]c3ccccc3c2=O)CC1 [Ketanserin],effect on TBI autoantibody-induced acute neurite retraction,[4],substantially blocked
same,% of autoantibody Neurite Retraction from TBI patients,[4]; antagonist 1 μM,26%
same,% of autoantibody Neurite Retraction from TBI patients,[4]; antagonist 2 μM,18%
same,% AutoAB-induced neurite retraction,[3]; antagonist 500 nM,43 ± 11%
Cc1cc(NC(=O)Nc2ccc3c(ccn3C)c2)sn1 [SB204741],effect on TBI autoantibody-induced acute neurite retraction,[4],no significant protective effect
same,% of autoantibody Neurite Retraction from TBI patients,[4]; antagonist 1 μM,70%
same,% AutoAB-induced neurite retraction,[3]; antagonist 1 μM,100 ± 0%
COc1cc2nc(N3CCN(C(=O)c4ccco4)CC3)nc(N)c2cc1OC [Prazosin],effect on accelerated N2A cell death/loss by TBI autoantibodies,[5],much less protective effect
same,% AutoAB-induced neurite retraction,[3]; antagonist 1 μM,72 ± 10%
Pertussis toxin,effect alone on N2A cell survival,[6],no effect
same,effect on autoantibody-induced N2A pro-survival/proliferation (words),[6],significantly blocked
same,effect on autoantibody-induced N2A pro-survival/proliferation (words),[6]; listed as pertussis toxin,blocked
C=C1C(=O)NC(C)C(=O)N(C)C(C)C(=O)NC(C(OC(=O)C(NC(C)=O)C(O)C(C)C)C(C)C)C(=O)N(C)C(C(C)OC)C(=O)OC(C)C(NC(C)=O)C(=O)OC(Cc2ccccc2)C(=O)N1C (centres unmarked) [YM254890] (Ac-T[PhLac][NMeDha]A[NMeA][X1][NMeT](Me); ester 1-C; configuration not given here),"effect on neurite retraction in TBI patient autoantibodies, Example 4",[4],significantly blocked
same,% of 5-HT2A receptor Autoantibody Neurite Retraction,[4]; inhibitor 1 μM,11%
same,effect on schizophrenia autoantibody-induced neurite retraction,[3],completely prevented
same,% of AutoAB-induced neurite retraction,[3]; inhibitor 1 μM,0 ± 0%
N[C@@]1(C(=O)O)CO[C@H]2[C@H](C(=O)O)[C@H]21 [LY379268],effect alone on N2A cell survival,[6],no effect
same,effect on autoantibody-induced N2A pro-survival/proliferation (words),[6],significantly blocked
same,mean level of neurite retraction in the presence of LY379268,"[3]; 10 μM LY379268, n=12, IgG alone 52±7%",74±10%
same,effect alone on neurite retraction,"[3]; 5-101.1M concentrations (so in the source), without autoantibodies",no effect
same,"Mean N2A neurite retraction, Pt IgG + LY379268","[3]; 7.5-10 μM LY379268, mean [IgG] 17 ± 6 nM, N = 12 patients, five minutes, Pt IgG alone 52 ± 7%",74 ±10%^∧
same,IgG autoantibody concentration giving 50% inhibition of N2A neurite outgrowth in the presence of LY379268,"[3]; 10 micromolar LY379268, Pt 1 SCZ IgG, without LY379268: one microgram per milliliter (~7 nM)",~0.5 microgram per milliliter
same,"IgG autoantibody concentration giving 50% inhibition of N2A neurite outgrowth in the presence of LY379268, molar","[3]; 10 micromolar LY379268, Pt 1 SCZ IgG, without LY379268 ~7 nM",3.5 nM
NCCOB(c1ccccc1)c1ccccc1 [Peptide 2-APB],"effect on neurite retraction in TBI patient autoantibodies, Example 4",[4],significantly blocked
same,% of 5-HT2A receptor Autoantibody Neurite Retraction,[4]; inhibitor 25 μM,0%
same,% of AutoAB-induced neurite retraction,[3]; inhibitor 50 μM,17 ± 1.9%
C[C@@H](N)[C@H]1CC[C@H](C(=O)Nc2ccncc2)CC1 [Peptide Y27632],effect on schizophrenia autoantibody-induced neurite retraction,[3],completely prevented
same,% of AutoAB-induced neurite retraction,[3]; inhibitor 10 μM,0 ± 0%
COc1ccc2c(c1)CC[C@@H]1[C@@H]2CC[C@]2(C)[C@@H](NCCCCCCN3C(=O)C=CC3=O)CC[C@@H]12 [Peptide U73122],"effect on neurite retraction in TBI patient autoantibodies, Example 4",[4],significantly blocked
same,% of 5-HT2A receptor Autoantibody Neurite Retraction,[4]; inhibitor 1 μM,10%
same,% of AutoAB-induced neurite retraction,[3]; inhibitor 1 μM,28 ± 15%
QDDSKVFKEGSCLLADDN [Peptide 1],"acute N2A neurite withdrawal, autoantibody + Q...N-18 at 3 μg/mL",[1]; [7],25 + 7%
same,"acute N2A neurite withdrawal, autoantibody + Q...N-18 at 5 μg/mL",[1]; [7],0 + 0%
same,effect on Patient 1 IgG autoantibody-induced N2A neurite retraction,[1],dose-dependently inhibited
same,Half-maximal inhibition of autoantibody-induced acute neurite retraction,[1]; sixty nanomolar protein-A eluate of Patient 1 plasma,2 µg/mL
same,IC50,"[1]; sixty nanomolar protein-A eluate of Patient 1 plasma, read-out: Half-maximal inhibition of autoantibody-induced acute neurite retraction, corresponding molar concentration",~1000 nM
"QDDSKVF [Peptide 3, short overlapping peptide of 5-HT2A receptor second extracellular loop]",Mean acute N2a neurite retraction (%),[1]; 5 minutes,87 + 19%
same,effect on Patient 1 IgG autoantibody-induced N2A neurite retraction,[1],no significant effect
